# Measured values as given in paper PMC10720383, “Acetylcholinesterase Inhibition in Rats and Humans Following Acute Fenitrothion Exposure Predicted by Physiologically Based Kinetic Modeling-Facilitated Quantitative In Vitro to In Vivo Extrapolation” (Environmental Science & Technology, 2023).
# Key:
# erythrocyte AChE [1] = test: PBK modeling-facilitated QIVIVE and BMD analysis, rat; conditions: erythrocyte AChE inhibition, acute oral FNT exposure
# Method: For toxicity prediction, the maximum blood FNO concentration was used as a dose metric relating AChE inhibition to acute FNT exposure (see section 3.3). Since the in vitro AChE inhibition under increasing FNO concentrations was tested in rat and human blood, these nominal concentrations could be used directly as the biological effective concentrations (in vivo maximum blood FNO concentrations), and no extra correction for differences in in vitro and in vivo protein binding was deemed necessary. Then the corresponding FNT dose levels resulting in these in vivo concentrations were derived via PBK modeling-facilitated reverse dosimetry. In doing so, the in vitro concentration–response relationship was converted to the predicted in vivo dose-dependent erythrocyte AChE inhibition, which was then compared to available in vivo toxicity data in rats and humans.[8],[39]
# BMD modeling was used to derive POD values from the predicted in vivo dose-dependent data sets for rats and humans. A BMD value resulting in a 10% benchmark response (BMR) change with lower 95% confidence limit was defined as BMDL10, and the obtained values for rats and humans were evaluated against the reported NOAELs.[1],[11]−[13] Details and results of BMD analysis are provided in the Supporting Information. […]
# BMD modeling was used to derive POD values from the predicted in vivo dose-response curves for rats and humans. […]
# erythrocyte AChE [2] = test: Reported NOAELs from in vivo rat toxicity studies
# Method: Acute exposure to FNT will cause neurotoxic symptoms in mammals due to AChE inhibition and subsequent acetylcholine accumulation at synaptic clefts.[10] Several no-observed-adverse-effect levels (NOAELs) derived from different in vivo rat or human toxicity data sets have been reported by different organizations, even though the same endpoint (erythrocyte AChE inhibition) was chosen. Specifically, NOAELs of 0.25 and 1.3 mg/kg BW for rats have been set by the US Environmental Protection Agency (US EPA)[11] and European Food Safety Authority (EFSA),[1] respectively, and NOAELs of 0.33 and 0.36 mg/kg BW for humans have been derived by Australian Pesticides and Veterinary Medicines Authority (APVMA)[12] and the Joint Food and Agriculture Organization of the United Nations/World Health Organization Meeting on Pesticide Residues (JMPR),[13] respectively. […]
# A NOAEL of 1.3 mg/kg BW was reported by EFSA[1] from a 90 day rat study[44] considering the impaired body weight gain and reduction in erythrocyte and brain cholinesterase activity as the critical effects. The US EPA[11] reported a 5.2-fold lower NOAEL (0.25 mg/kg BW) based on the measured erythrocyte AChE inhibition after 2 weeks of FNT dosing in a 92 week rat study.[45] […]
# [3] = cited from earlier work
compound,measurement,setting,value
"COP(=S)(OC)Oc1ccc([N+](=O)[O-])c(C)c1 [FNT, O,O-dimethyl O-4-nitro-m-tolyl phosphorothioate]",predicted BMDL10 (POD),"erythrocyte AChE [1]; 10% BMR, lower 95% confidence limit",1.30 mg/kg BW
same,BMDU10,erythrocyte AChE [1]; upper confidence limit,1.71 mg/kg BW
same,"US EPA rat NOAEL, fold lower than EFSA rat NOAEL",erythrocyte AChE [2],5.2 fold
same,"LogP, reported data","[3]; not clear if experimental or in silico, ref WHO 2004",3.16
same,"LogP, experimental data",[3]; ref JMPR 2003,3.319
